The nature of experiment [1]: Cell growth assay (WST-8) for "B" compounds. The settings on record: T47D, read-out: Cell growth Inhibition in T47D cell line IC50. It is filed as cell-based. The procedure, abridged:
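Cells seeded at 1500/well overnight, then exposed to compounds for 4 days. 10% WST-8 added for 2.5 h at 37 °C and absorbance read at 450 nm. Growth given as absorbance relative to vehicle control, from three repeats.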
For orientation: Tetrazolium assays rely on reduction of a dye to a coloured formazan, in cell work by metabolically active cells.

For experiment [2], the target named is ER (Homo sapiens (Human), UniProt P03372). Kind of experiment: In-cell western blot analysis of ER for "B" compounds. It is filed as cell-based. The following applies: 16 hours, read-out: ICW DC50. The procedure:
R^T 2h, gentle shaking. Negative control: cells plus secondary antibodies (no primary antibodies); e, wash x 4 with PBS+0.05-0.1% Tween 20, gentel shaking; f, anti-rabbit-680 and anti-mouse-800 (both 1:1000 in LiCor block+0.05% Tween20, R^T 1h, gentle shaking, no light. LI-COR: 0.2% to reduce background; g, wash×4 with PBS+0.05% Tween 20, gental shaking; h, add 100 μL or 25 μL of PBS to each well and read on CLX plate reader. The relative ER percentage in treated cells were obtained by comparing the values of treated wells to those in untreated and DMSO-treated wells as 100%.

In general, IC50 refers to the concentration at which inhibition is half-maximal.

Read-outs that look alike come from different tables or passages of the source.

Chain of ER (P03372 whole entry): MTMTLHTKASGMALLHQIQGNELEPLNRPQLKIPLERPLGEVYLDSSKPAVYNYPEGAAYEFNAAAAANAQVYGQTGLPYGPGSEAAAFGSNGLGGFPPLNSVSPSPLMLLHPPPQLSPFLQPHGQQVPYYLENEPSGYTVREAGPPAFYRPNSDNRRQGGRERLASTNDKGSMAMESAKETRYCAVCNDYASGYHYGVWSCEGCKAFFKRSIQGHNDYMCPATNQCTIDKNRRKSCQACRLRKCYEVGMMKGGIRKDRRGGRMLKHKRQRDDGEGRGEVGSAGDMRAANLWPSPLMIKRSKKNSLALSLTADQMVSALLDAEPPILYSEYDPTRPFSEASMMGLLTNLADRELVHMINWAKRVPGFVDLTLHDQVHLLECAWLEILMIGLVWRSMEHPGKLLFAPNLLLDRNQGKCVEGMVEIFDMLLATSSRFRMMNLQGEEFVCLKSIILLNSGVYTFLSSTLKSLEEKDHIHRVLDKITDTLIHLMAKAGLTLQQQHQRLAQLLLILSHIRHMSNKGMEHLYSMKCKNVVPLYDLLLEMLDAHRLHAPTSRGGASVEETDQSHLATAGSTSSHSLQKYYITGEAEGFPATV

Turning to `O=C1CCC(N2Cc3cc4c(cc3C2=O)OC[C@@H]2CN(CC(=O)N3CCC5(CC3)CCN(c3ncc([C@@H]6c7ccc(O)cc7CC[C@@H]6c6ccccc6)cn3)CC5)CCN42)C(=O)N1` (mixture of isomers) [Compound B149, 3-((S)-3-(2-(9-(5-(cis-6-hydroxy-2-phenyl-1,2,3,4-tetrahydronaphthalen-1-yl)pyrimidin-2-yl)-3,9-diazaspiro[5.5]undecan-3-yl)-2-oxoethyl)-8-oxo-1,2,3,4,4a,5,8,10-octahydro-9H-pyrazino[1′,2′: 4,5][1,4]oxazino[2,3-f]isoindol-9-yl)piperidine-2,6-dione], in experiment [1], the half-inhibitory concentration (IC50) was less than 1 nM. Moreover, the DC50 in experiment [2] lay within 10 to 100 nM.

Consider `CN(C(=O)c1ccc2c(c1)OC[C@H]1CN(C(=O)CN3CCC4(CC3)CN(c3ccc(C5c6ccc(O)cc6CCC5c5ccccc5)cc3)C4)CCN21)C1CCC(=O)NC1=O` (stereo in doubt) [Compound B223, (4aR)-N-(2,6-dioxopiperidin-3-yl)-3-(2-(2-(4-((1S,2R)-6-hydroxy-2-phenyl-1,2,3,4-tetrahydronaphthalen-1-yl)phenyl)-2,7-diazaspiro[3.5]nonan-7-yl)acetyl)-N-methyl-1,2,3,4,4a,5-hexahydrobenzo[b]pyrazino[1,2-d][1,4]oxazine-8-carboxamide], for which the half-inhibitory concentration (IC50) in experiment [1] (T47D cell line) is greater than 10 nM. In addition, in experiment [2], the DC50 lay in the range of 10 to 100 nM. For `O=C1CCC(N2Cc3cc4c(cc3C2=O)OC[C@@H]2CN(C(=O)[C@H]3CC[C@@H](CN5CC(Nc6ccc([C@@H]7c8ccc(O)cc8CC[C@@H]7c7ccccc7)cc6)C5)CC3)CCN42)C(=O)N1` (stereo partly drawn) [Compound B140, 3-((S)-3-((1R,4S)-4-((3-((4-((1R,2S)-6-hydroxy-2-phenyl-1,2,3,4-tetrahydronaphthalen-1-yl)phenyl)amino)azetidin-1-yl)methyl)cyclohexane-1-carbonyl)-8-oxo-1,2,3,4,4a,5,8,10-octahydro-9H-pyrazino[1′,2′:4,5][1,4]oxazino[2,3-f]isoindol-9-yl)piperidine-2,6-dione], in that order: less than 1 nM and less than 10 nM.

For the molecule `O=C1CCC(N2Cc3cc4c(cc3C2=O)OC[C@@H]2CN(C(=O)[C@H]3CC[C@H](CN5CCN(c6ccc([C@@H]7c8ccc(O)cc8CC[C@@H]7c7ccccc7)cc6)CC5)CC3)CCN42)C(=O)N1` (stereo partly drawn) [Compound B141, 3-((S)-3-((1R,4S)-4-((4-(4-((1R,2S)-6-hydroxy-2-phenyl-1,2,3,4-tetrahydronaphthalen-1-yl)phenyl)piperazin-1-yl)methyl)cyclohexane-1-carbonyl)-8-oxo-1,2,3,4,4a,5,8,10-octahydro-9H-pyrazino[1′,2′:4,5][1,4]oxazino[2,3-f]isoindol-9-yl)piperidine-2,6-dione], the IC50 in experiment [1] (T47D cell line) was less than 1 nM. In experiment [2], the DC50 was less than 10 nM. Consider `O=C1CCC(N2Cc3cc4c(cc3C2=O)OC[C@@H]2CN(C(=O)CN3CC5(CCN(c6ccc([C@@H]7c8ccc(O)cc8CC[C@@H]7c7ccccc7)cc6)CC5)C3)CCN42)C(=O)N1` (stereo partly drawn) [Compound B142, 3-((S)-3-(2-(7-(4-((1R,2S)-6-hydroxy-2-phenyl-1,2,3,4-tetrahydronaphthalen-1-yl)phenyl)-2,7-diazaspiro[3.5]nonan-2-yl)acetyl)-8-oxo-1,2,3,4,4a,5,8,10-octahydro-9H-pyrazino[1′,2′: 4,5][1,4]oxazino[2,3-f]isoindol-9-yl)piperidine-2,6-dione], for which the IC50 in experiment [1] (T47D cell line) is less than 1 nM. Besides, the DC50 in experiment [2] is less than 10 nM. In the case of `O=C1CCC(N2Cc3c(ccc4c3OC[C@H]3CN(C[C@H]5CC[C@H](Nc6ccc([C@@H]7c8ccc(O)cc8CC[C@@H]7c7ccccc7)cc6)CC5)CCN43)C2=O)C(=O)N1` (stereo partly drawn) [Compound B322, 3-((R)-7-(((1R,4R)-4-((4-((1R,2S)-6-hydroxy-2-phenyl-1,2,3,4-tetrahydronaphthalen-1-yl)phenyl)amino)cyclohexyl)methyl)-1-oxo-1,3,5,5a,6,7,8,9-octahydro-2H-pyrazino[1′,2′:4,5][1,4]oxazino[2,3-e]isoindol-2-yl)piperidine-2,6-dione], the DC50 in experiment [2] is less than 10 nM. The same measure, in the same setting: for `CN(CC1CC2(CCN(c3ccc([C@@H]4c5ccc(O)cc5CC[C@@H]4c4ccccc4)cc3)CC2)C1)[C@H]1C[C@H]2COc3cc4c(cc3N2C1)C(=O)N(C1CCC(=O)NC1=O)C4=O` (stereo partly drawn) [Compound B331, (2S,3aS)-8-(2,6-dioxopiperidin-3-yl)-2-(((7-(4-((1R,2S)-6-hydroxy-2-phenyl-1,2,3,4-tetrahydronaphthalen-1-yl)phenyl)-7-azaspiro[3.5]nonan-2-yl)methyl)(methyl)amino)-2,3,3a,4-tetrahydro-1H,7H-pyrrolo[1′,2′:4,5][1,4]oxazino[2,3-f]isoindole-7,9(8H)-dione] the value was greater than 100 nM; for `O=C1CC[C@H](N2Cc3c(ccc4c3OC[C@H]3CN(CC5CCC6(CN(c7ccc([C@@H]8c9ccc(O)cc9CC[C@@H]8c8ccccc8)cc7)C6)OC5)CCN43)C2=O)C(=O)N1` (stereo partly drawn) [Compound B348, (3S)-3-((5aR)-7-((2-(4-((1R,2S)-6-hydroxy-2-phenyl-1,2,3,4-tetrahydronaphthalen-1-yl)phenyl)-5-oxa-2-azaspiro[3.5]nonan-7-yl)methyl)-1-oxo-1,3,5,5a,6,7,8,9-octahydro-2H-pyrazino[1′,2′:4,5][1,4]oxazino[2,3-e]isoindol-2-yl)piperidine-2,6-dione], less than 10 nM; for `O=C1CC[C@H](N2Cc3cc4c(cc3C2=O)OC[C@@H]2CN(CC3CCC5(CN(c6ccc([C@@H]7c8ccc(O)cc8CC[C@@H]7c7ccccc7)cc6)C5)OC3)CCN42)C(=O)N1` (stereo partly drawn) [Compound B349, (3S)-3-((4aS)-3-((2-(4-((1R,2S)-6-hydroxy-2-phenyl-1,2,3,4-tetrahydronaphthalen-1-yl)phenyl)-5-oxa-2-azaspiro[3.5]nonan-7-yl)methyl)-8-oxo-1,2,3,4,4a,5,8,10-octahydro-9H-pyrazino[1′,2′:4,5][1,4]oxazino[2,3-f]isoindol-9-yl)piperidine-2,6-dione], 10 to 100 nM. On the same count and under the same terms, for `O=C1CC[C@H](N2Cc3c(ccc4c3OC[C@H]3CN(C[C@H]5CC[C@H](Nc6ccc([C@@H]7c8ccc(O)cc8CC[C@@H]7c7ccccc7)cc6)CC5)CCN43)C2=O)C(=O)N1` [Compound B353, (S)-3-((R)-7-(((1R,4R)-4-((4-((1R,2S)-6-hydroxy-2-phenyl-1,2,3,4-tetrahydronaphthalen-1-yl)phenyl)amino)cyclohexyl)methyl)-1-oxo-1,3,5,5a,6,7,8,9-octahydro-2H-pyrazino[1′,2′:4,5][1,4]oxazino[2,3-e]isoindol-2-yl)piperidine-2,6-dione] the value was 10 to 100 nM; for `O=C1CC[C@H](N2Cc3cc4c(cc3C2=O)OC[C@@H]2CN(C[C@H]3CC[C@@H](Nc5ccc([C@@H]6c7ccc(O)cc7CC[C@@H]6c6ccccc6)cc5)CC3)CCN42)C(=O)N1` [Compound B354, (S)-3-((S)-3-(((1R,4S)-4-((4-((1R,2S)-6-hydroxy-2-phenyl-1,2,3,4-tetrahydronaphthalen-1-yl)phenyl)amino)cyclohexyl)methyl)-8-oxo-1,2,3,4,4a,5,8,10-octahydro-9H-pyrazino[1′,2′:4,5][1,4]oxazino[2,3-f]isoindol-9-yl)piperidine-2,6-dione], 10 to 100 nM; for `O=C1CCC(Nc2ccc(C3CCN(CC4CCN(c5ccc([C@@H]6c7ccc(O)cc7CC[C@@H]6c6ccccc6)cc5)CC4)CC3)cc2F)C(=O)N1` (stereo partly drawn) [Compound B378, 3-((2-fluoro-4-(1-((1-(4-((1R,2S)-6-hydroxy-2-phenyl-1,2,3,4-tetrahydronaphthalen-1-yl)phenyl)piperidin-4-yl)methyl)piperidin-4-yl)phenyl)amino)piperidine-2,6-dione], greater than 100 nM. On to `O=C1CCC(Nc2ccc(C3CCN(CC4CC5(CCN(c6ccc([C@@H]7c8ccc(O)cc8CC[C@@H]7c7ccccc7)cc6)CC5)C4)CC3)cc2F)C(=O)N1` (stereo partly drawn) [Compound B379, 3-((2-fluoro-4-(1-((7-(4-((1R,2S)-6-hydroxy-2-phenyl-1,2,3,4-tetrahydronaphthalen-1-yl)phenyl)-7-azaspiro[3.5]nonan-2-yl)methyl)piperidin-4-yl)phenyl)amino)piperidine-2,6-dione], for which the DC50 in experiment [2] was greater than 100 nM. Same read-out and setting: for `O=C1CCC(Nc2ccc(N3CCN(CC4CCN(c5ccc([C@@H]6c7ccc(O)cc7CC[C@@H]6c6ccccc6)cc5)CC4)CC3)c(F)c2)C(=O)N1` (stereo partly drawn) [Compound B380, 3-((3-fluoro-4-(4-((1-(4-((1R,2S)-6-hydroxy-2-phenyl-1,2,3,4-tetrahydronaphthalen-1-yl)phenyl)piperidin-4-yl)methyl)piperazin-1-yl)phenyl)amino)piperidine-2,6-dione] the value was greater than 100 nM. Still for that read-out and setting: for `O=C1CCC(Nc2ccc(N3CCN(CC4CC5(CCN(c6ccc([C@@H]7c8ccc(O)cc8CC[C@@H]7c7ccccc7)cc6)CC5)C4)CC3)c(F)c2)C(=O)N1` (stereo partly drawn) [Compound B381, 3-((3-fluoro-4-(4-((7-(4-((1R,2S)-6-hydroxy-2-phenyl-1,2,3,4-tetrahydronaphthalen-1-yl)phenyl)-7-azaspiro[3.5]nonan-2-yl)methyl)piperazin-1-yl)phenyl)amino)piperidine-2,6-dione] the value was greater than 100 nM; for `O=C1CCC(Nc2ccc(N3CCN(CC4CCC5(CCN(c6ccc([C@@H]7c8ccc(O)cc8CC[C@@H]7c7ccccc7)cc6)CC5)OC4)CC3)c(F)c2)C(=O)N1` (stereo partly drawn) [Compound B382, 3-((3-fluoro-4-(4-((9-(4-((1R,2S)-6-hydroxy-2-phenyl-1,2,3,4-tetrahydronaphthalen-1-yl)phenyl)-1-oxa-9-azaspiro[5.5]undecan-3-yl)methyl)piperazin-1-yl)phenyl)amino)piperidine-2,6-dione], greater than 100 nM.

The values above are taken from patent US20260028354A1, “TETRAHYDRONAPHTHALENE DERIVATIVES AS ESTROGEN RECEPTOR DEGRADERS” (REGENT OF THE UNIVERSITY OF MICHIGAN, priority 2022, published 2026).
